The source made the active and inactive calls.
Assays:
Caspase-3 = biological target: T1, Caspase-3 (Homo sapiens, UniProt P42574); format: functional;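 further: Dose-response selectivity test against caspase-3 for candidate inhibitors of sentrin-specific proteases (SENPs)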
T1 sequence (P42574 whole entry): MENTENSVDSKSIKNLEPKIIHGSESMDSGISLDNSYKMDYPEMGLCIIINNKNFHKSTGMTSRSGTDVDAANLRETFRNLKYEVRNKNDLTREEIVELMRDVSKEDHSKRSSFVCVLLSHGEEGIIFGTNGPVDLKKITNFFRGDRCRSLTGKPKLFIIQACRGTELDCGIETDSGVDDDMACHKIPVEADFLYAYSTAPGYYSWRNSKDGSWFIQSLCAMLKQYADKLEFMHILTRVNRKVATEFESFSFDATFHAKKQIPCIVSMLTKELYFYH

[1] = Artemis endonuclease inhibitor potency, dose response, biochemical, fluorescence intensity (AID 720701); format: functional;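 further: Artemis endonuclease enzyme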
[2] = biological target: T2, Sentrin-specific protease 8 (Homo sapiens, UniProt Q96LD8); format: functional;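 further: luminescence read-out of SENP8 inhibition, dose-response confirmation following an ultra-high-throughput screen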
T2 sequence (Q96LD8 whole entry): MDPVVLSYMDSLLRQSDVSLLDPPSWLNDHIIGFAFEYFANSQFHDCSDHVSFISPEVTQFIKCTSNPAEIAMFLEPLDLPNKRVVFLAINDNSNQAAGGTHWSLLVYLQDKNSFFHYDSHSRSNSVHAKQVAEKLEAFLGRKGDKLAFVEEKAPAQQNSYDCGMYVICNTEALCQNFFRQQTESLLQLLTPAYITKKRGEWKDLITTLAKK

[3] = biological target: T3, Sentrin-specific protease 7 (Homo sapiens, UniProt Q9BQF6); format: functional;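 further: Luminescence-based dose-response confirmation of ultra-high-throughput screening hits, measuring inhibition of SENP7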
T3 sequence (Q9BQF6 whole entry): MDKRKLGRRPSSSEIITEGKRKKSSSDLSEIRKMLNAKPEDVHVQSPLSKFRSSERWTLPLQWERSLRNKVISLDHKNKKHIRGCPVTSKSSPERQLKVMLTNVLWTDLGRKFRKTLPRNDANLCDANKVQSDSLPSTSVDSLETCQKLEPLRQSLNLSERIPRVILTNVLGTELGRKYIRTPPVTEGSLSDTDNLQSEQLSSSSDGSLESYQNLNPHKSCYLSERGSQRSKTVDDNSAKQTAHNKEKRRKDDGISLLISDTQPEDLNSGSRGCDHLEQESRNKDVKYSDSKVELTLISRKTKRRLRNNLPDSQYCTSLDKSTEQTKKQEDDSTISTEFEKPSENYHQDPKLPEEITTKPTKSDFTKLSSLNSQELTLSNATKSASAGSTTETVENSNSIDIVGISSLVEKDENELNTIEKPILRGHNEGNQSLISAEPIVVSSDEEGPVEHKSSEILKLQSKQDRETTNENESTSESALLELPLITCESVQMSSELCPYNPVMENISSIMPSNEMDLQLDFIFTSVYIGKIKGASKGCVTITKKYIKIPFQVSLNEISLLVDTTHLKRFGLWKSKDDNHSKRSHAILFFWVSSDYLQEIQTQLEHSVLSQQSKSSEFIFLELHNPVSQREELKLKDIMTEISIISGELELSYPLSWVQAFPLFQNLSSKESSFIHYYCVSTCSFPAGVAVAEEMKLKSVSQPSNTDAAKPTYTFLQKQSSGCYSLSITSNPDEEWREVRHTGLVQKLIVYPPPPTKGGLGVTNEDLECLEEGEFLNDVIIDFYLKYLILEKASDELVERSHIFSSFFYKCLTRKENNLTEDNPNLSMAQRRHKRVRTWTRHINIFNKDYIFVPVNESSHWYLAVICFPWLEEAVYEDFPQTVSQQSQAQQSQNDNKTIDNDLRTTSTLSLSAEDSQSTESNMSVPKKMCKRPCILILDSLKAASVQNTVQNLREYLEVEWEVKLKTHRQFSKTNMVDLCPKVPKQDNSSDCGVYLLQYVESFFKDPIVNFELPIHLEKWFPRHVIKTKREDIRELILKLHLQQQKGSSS

[4] = biological target: T4, Sentrin-specific protease 6 (Homo sapiens, UniProt Q9GZR1); format: functional;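 further: Luminescence-based dose-response confirmatory assay of SENP6 inhibition, following up an ultra-high-throughput screen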
T4 sequence (Q9GZR1 whole entry): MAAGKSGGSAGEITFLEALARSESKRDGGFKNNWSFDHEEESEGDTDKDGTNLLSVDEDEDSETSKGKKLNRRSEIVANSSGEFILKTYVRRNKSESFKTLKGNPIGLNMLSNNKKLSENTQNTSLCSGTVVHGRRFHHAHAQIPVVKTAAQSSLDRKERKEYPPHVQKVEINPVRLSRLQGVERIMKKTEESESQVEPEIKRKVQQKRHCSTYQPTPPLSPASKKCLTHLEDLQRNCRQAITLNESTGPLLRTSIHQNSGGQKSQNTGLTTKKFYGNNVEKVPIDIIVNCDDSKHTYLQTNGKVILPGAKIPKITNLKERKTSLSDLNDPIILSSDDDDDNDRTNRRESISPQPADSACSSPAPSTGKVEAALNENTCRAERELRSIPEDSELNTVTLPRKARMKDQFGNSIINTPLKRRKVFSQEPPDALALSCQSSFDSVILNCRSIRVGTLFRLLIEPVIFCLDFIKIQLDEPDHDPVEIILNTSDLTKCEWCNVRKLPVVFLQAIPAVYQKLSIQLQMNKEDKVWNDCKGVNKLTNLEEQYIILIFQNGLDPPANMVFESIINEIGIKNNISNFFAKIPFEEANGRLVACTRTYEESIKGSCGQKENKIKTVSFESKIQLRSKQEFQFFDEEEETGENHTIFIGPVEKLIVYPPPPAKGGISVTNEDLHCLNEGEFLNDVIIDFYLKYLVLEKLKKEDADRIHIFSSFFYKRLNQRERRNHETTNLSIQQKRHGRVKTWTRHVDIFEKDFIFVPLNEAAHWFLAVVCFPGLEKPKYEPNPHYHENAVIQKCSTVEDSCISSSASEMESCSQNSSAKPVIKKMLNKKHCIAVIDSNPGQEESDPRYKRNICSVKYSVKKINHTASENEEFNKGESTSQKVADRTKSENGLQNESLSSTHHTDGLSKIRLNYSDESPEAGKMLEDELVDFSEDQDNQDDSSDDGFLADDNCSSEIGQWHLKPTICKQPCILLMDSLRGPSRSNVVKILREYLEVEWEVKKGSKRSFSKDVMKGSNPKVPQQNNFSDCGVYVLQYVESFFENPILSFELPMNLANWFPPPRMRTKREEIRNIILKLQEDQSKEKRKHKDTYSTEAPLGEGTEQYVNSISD

[5] = biological target: Glutathione-S-transferase (Schistosoma japonicum, UniProt Q26513); experiment: biotin-GST/anti-GST TR-FRET signal inhibitors, dose response, artefact control for Vif-APOBEC3G degradation inhibitor project, biochemical (AID 1117362); format: functional
Chain of Glutathione-S-transferase (Q26513 whole entry): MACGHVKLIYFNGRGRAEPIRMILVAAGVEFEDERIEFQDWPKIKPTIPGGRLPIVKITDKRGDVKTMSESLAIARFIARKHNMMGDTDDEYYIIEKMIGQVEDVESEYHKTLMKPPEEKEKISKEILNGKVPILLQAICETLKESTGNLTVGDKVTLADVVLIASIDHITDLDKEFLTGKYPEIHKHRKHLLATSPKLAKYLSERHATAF

[6] = HEK293 cell cytotoxicity, dose response, cytotoxicity control, plate reader, cherry-picked samples (AID 743446); format: functional, cell-based
[7] = inhibitors of CMV-promoter luciferase reporter, dose response, counter-screen for Pax8 inhibitor project, cell-based, HEK293, luminescence, dry powder (AID 743020); format: functional
[8] = LGR2 antagonists, dose response, cell-based, HEK293, CRE-luciferase reporter, cherry pick, set 2 (AID 743343); format: functional;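 further: transfected cells were stimulated with diluted bursicon conditioned medium after compound addition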
Paired box protein Pax-8 = Paired box protein Pax-8 (Homo sapiens, UniProt Q06710); experiment: inhibitors of PAX8-driven TPO luciferase reporter, dose response, RMG-I cells, cherry-pick (AID 687027); format: functional, cell-based;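 further: luciferase reporter driven by Pax8 target thyroperoxidase promoter measured by SteadyGlo luminescence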
Chain of Paired box protein Pax-8 (Q06710 whole entry): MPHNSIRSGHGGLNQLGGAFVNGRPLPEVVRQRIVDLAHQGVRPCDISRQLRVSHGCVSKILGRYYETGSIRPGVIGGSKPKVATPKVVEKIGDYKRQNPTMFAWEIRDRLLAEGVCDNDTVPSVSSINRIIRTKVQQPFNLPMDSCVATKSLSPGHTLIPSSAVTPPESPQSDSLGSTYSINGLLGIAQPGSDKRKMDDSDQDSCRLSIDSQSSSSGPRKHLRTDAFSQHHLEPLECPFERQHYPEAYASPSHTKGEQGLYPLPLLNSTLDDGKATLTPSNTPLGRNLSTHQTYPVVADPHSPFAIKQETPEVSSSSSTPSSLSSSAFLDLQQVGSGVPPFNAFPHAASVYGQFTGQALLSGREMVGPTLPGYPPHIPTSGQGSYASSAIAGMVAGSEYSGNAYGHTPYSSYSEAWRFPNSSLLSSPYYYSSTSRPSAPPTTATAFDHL

[9] = HepG2 cell cytotoxicity, dose response, cytotoxicity control, plate reader, cherry-pick, antagonist series (AID 743416); format: functional, cell-based
[10] = IOSE-T80 ovarian epithelial cell cytotoxicity, dose response, cytotoxicity control for PAX8 inhibitor project, plate reader, dry powder samples (AID 743045); format: functional, cell-based
[11] = PAX5 activity inhibitors, dose response, selectivity assay for PAX8 inhibitor project, cell-based, plate reader, dry powder samples (AID 743047); format: functional;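 further: HEK293 cells carrying a Pax5 driven CD19 promoter luciferase reporter; potency of inhibitors that lower reporter luminescence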
[12] = cytotoxicity in OV-90 ovarian cancer cells, dose response, PAX8 inhibitor project, cell-based, plate reader, dry powder, SA8 (AID 743149); format: functional
[13] = MC4R antagonists, dose response, counter-screen for LGR2 antagonist project, cell-based, plate reader, cherry pick (AID 743444); format: functional;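 further: transfected HEK 293 cells stimulated with alpha-MSH peptide; potency of inhibitors of the alpha-MSH evoked signal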
[14] = cytotoxicity in OVCAR8 ovarian cancer cells, dose response, PAX8 project, cell-based, plate reader, dry powder samples (AID 743197); format: functional; conditions: OVCAR-8
[15] = cytotoxicity in COV362 ovarian cancer cells, dose response, cytotoxicity control for PAX8 inhibitor project, cell-based, plate reader, dry powder, SA12 (AID 743144); format: functional
[16] = PAX2 cell-based inhibition, dose response, selectivity assay for PAX8 inhibitor project, plate reader, dry powder samples (AID 743048); format: functional;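 further: HEK293 cells carrying a WT1 promoter luciferase reporter driven by expressed Pax2; potency is for inhibition of Pax2 driven reporter signal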
[17] = cytotoxicity in COV434 cells, dose response, cytotoxicity control for PAX8 inhibitor project, cell-based, plate reader, dry powder, SA7 (AID 743145); format: functional
[18] = A549 cell cytotoxicity, dose response, cytotoxicity control, plate reader, cherry-pick, antagonist series (AID 743412); format: functional, cell-based
[19] = cytotoxicity dependent on PAX8, dose response, cell-based, plate reader, dry powder (AID 743049); format: functional
[20] = IGROV1 ovarian cancer cell cytotoxicity, dose response, PAX8 inhibitor project, plate reader, dry powder samples (AID 743043); format: functional, cell-based; conditions: IGROV-1
[21] = NIH:OVCAR-3 ovarian cancer cell cytotoxicity, dose response, PAX8 inhibitor project, plate reader, dry powder samples (AID 743044); format: functional, cell-based
[22] = P. falciparum Dd2 growth inhibitors, dose response, SYBR Green, cherry-picked samples (AID 1159567); format: functional, cell-based
[23] = fibronectin fibrillogenesis inhibitors in fibroblasts, dose response, AH1F cells, Alexa488-fibronectin fluorescence, cherry-pick, set 2 (AID 1117283); format: functional, cell-based
[24] = A549 cell cytotoxicity, dose response, cytotoxicity control, cherry-picks, 26 µM top dose (AID 1053119); format: functional, cell-based
[25] = HepG2 cell cytotoxicity, dose response, cytotoxicity control, cherry-picked samples (AID 1159577); format: functional, cell-based
[26] = TB: CFU replicating Measured in Microorganism System Using Imaging - 7108-05_Inhibitor_Dose_DryPowder_Activity_Set2.; format: functional

SMILES: Brc1ccc(-c2cn3nc4c(nc3n2)CCCC4)cc1
- IC50 (Caspase-3): 17.4 µM (active)
- IC50 [1]: > 20 µM (inactive)
- IC50 [2]: 17.7 µM (active)
- IC50 [3]: 21.2 µM (active)
- IC50 [4]: 12.3 µM (active)

SMILES: O=C(O)c1ccc(S(=O)(=O)c2ccc([N+](=O)[O-])cc2[N+](=O)[O-])cc1
- IC50 [5]: > 100 µM (active)

SMILES: N#C[C@@H]1[C@H](c2ccc(C#Cc3ccc(F)cc3)cc2)[C@@H](CO)N1C(=O)Nc1ccc(F)cc1
- AC50 [6]: 27.9 µM (active)
- AC50 [7]: 5.19 µM (active)
- AC50 [8]: 34.4 µM (active)
- AC50 (Paired box protein Pax-8): 4.38 µM (active)
- AC50 [9]: 16.8 µM (active)
- AC50 [10]: 24 µM (active)
- AC50 [11]: 15.8 µM (active)
- AC50 [12]: > 70 µM (inactive)
- AC50 [13]: 35.9 µM (active)
- AC50 [14]: 22.2 µM (active)
- AC50 [15]: 44.7 µM (active)
- AC50 [16]: 12.9 µM (active)
- AC50 [17]: > 70 µM (inactive)
- AC50 [18]: 14.3 µM (active)
- AC50 [19]: 33.8 µM (active)
- AC50 [20]: 23.1 µM (active)
- AC50 [21]: 30.9 µM (active)

SMILES: C[C@@H]1CN([C@@H](C)CO)C(=O)c2cccc(NC(=O)Nc3ccc(C(F)(F)F)cc3)c2O[C@H]1CN(C)C(=O)Nc1cccc2ccccc12
- AC50 [22]: 7.88 µM (active)
- AC50 [23]: > 70 µM (inactive)
- AC50 [24]: > 52 µM (inactive)
- AC50 [25]: > 39 µM (inactive)

SMILES: Cn1c(NC(=O)c2ccccn2)nc2ccccc21
- AbsAC90 [26]: 274.28 µM

Source: ChEMBL document CHEMBL1201862, “PubChem BioAssay data set” (2004)
